For series [1], the system named is iliac atherosclerotic plaques. As to the kind of experiment: Catheter-based NIRF sensing of ICG enhancement of atherosclerotic plaques. Particulars: immediately after injection; 6 mg ICG in 1.2 mL. It is filed as in vivo, rabbit. The method, then: White rabbits (weight 3-3.5 kg) underwent balloon-denudation of iliac arteries and hypercholsterolemic diet in order to develop inflamed atheromata. The rabbits were placed on a high-cholesterol diet (1% cholesterol and 5% peanut oil) for 1 week prior to balloon injury. After an overnight fast, anesthesia was induced with IM ketamine (35 mg/kg) and xylazine (5 mg/kg). Anesthesia was continued using inhaled isoflurane (1-5% v/v) and supplemental 02. Next a 3F Fogarty arterial embolectomy catheter was advanced into the common iliac vessels of the rabbits. The balloon was inflated to tension (0.6-1.0 ml). A total of 3 pullbacks were performed in the left and right iliac artery, as well as the infrarenal aorta. Following injury, the introducer was removed and the left carotid artery was ligated. Rabbits continued on the high-cholesterol diet for 4-8 weeks. […]
Anesthesia was initiated as above, and a 5F introducer was placed into the right carotid artery and then delivered to the descending thoracic aorta under fluoroscopic guidance. […] The maximum voltage was recorded from each digitized pullback. The in vivo plaque target-to-background ratio (TBR) was thus calculated as TBR=(maximum voltage detected from all pullbacks)/(background voltage). […]

Series [2] relates to atherosclerotic plaques in the iliac and aorta. Nature of the series: Ex vivo fluorescence reflectance imaging (FRI) of resected atherosclerotic aortoiliac vessels. Set-up: species or system rabbit. To be noted: excitation/emission 762 nm/800 nm. The method, then:
Resected atherosclerotic aortoiliac vessels underwent fluorescence reflectance imaging (FRI) with an excitation/emission filter 762 nm/800 nm and a 5 second exposure time. Light images were also obtained with an exposure time of 100 msec. Region-of-interest (ROI) analysis was performed using visual identification of plaques and normal background on FRI images. The plaque target-to-background ratio was defined as: TBR=(plaque ROI signal)/(adjacent vessel background ROI signal).

A further series concerns plaque neovessels. Nature of the series: Correlative fluorescence microscopy of atheromata sections. Set-up: species or system rabbit. To be noted: x200, FIG. 4(f).
The conditions of series [3]: cited from earlier work.
The conditions of series [4]: in vivo; cited from earlier work.
The conditions of series [5]: cited from earlier work. The source holds these as a separate data set.

Method for plaque neovessels: After imaging, vessels were immersed in 4% paraformaldehyde for 24 hours. Vascular rings were then frozen in an optical cutting temperature compound for histopathological analysis. Serial 5 micrometer cryosections of rabbit atheromata were cut. […] Tissue sections were viewed using a microscope and images were captured using a digital camera.

With `CC1(C)C(/C=C/C=C/C=C/C=C2\N(CCCCS(=O)(=O)O)c3ccc4ccccc4c3C2(C)C)=[N+](CCCCS(=O)(=O)[O-])c2ccc3ccccc3c21` [ICG, Indocyanine green], the “NIRF signal, voltage recordings from the intravascular space of the iliac arteries” value in series [1] was more than 10 V. The “ex vivo plaque signal-to-background” value in series [2] is given as “very high plaque signal-to-background”. For the same compound, the “ICG signal in plaque neovessel by fluorescence microscopy” value in the series with plaque neovessels is given as “strong ICG signal in a plaque neovessel”. In addition, the “time usable as intravascular angiographic agent” value in series [3] (bound to proteins) is recorded as “about 40 minutes”. Besides, in series [3] (in vivo), the route of excretion result was “rapidly excreted unmetabolized into the bile” and the “time to elimination from the bloodstream” value is “about 2 hours”. In series [4], the “severe side effect incidence” value is reported as “less than 0.1%”. The solubility in saline entry in series [5] was “not readily soluble in saline”.
